In patent publication US20210346414A1, “APPLICATION OF GLYCOSIDES IN THE PREPARATION OF DRUGS FOR PREVENTING AND TREATING DIABETES COMPLICATIONS” (CHENGDU SINNOCEAN BIOTECHNOLOGY CO., LTD., priority 2018, published 2021):
Values joined by “and” are separate entries in the source; they are usually repeats but may differ in a detail not shown here. Identical values can stand only once.

Key:
Assay type in all cases: in vivo
[1] = tested on: spontaneous type II diabetic db/db mice; test: Kidney histopathology grading after treatment; parameters: key to kidney / Basophilic changes in renal tubules / Monocyte infiltration / Hypertrophy of renal tubular epithelial cells / Dilation of the renal pelvis / Protein casts / Glomerular dilation / Glomerulosclerosis: “N” means normal tissue morphology and structure; “E” means changed tissue morphology and structure; “—” means no such pathological change; conditions: 12 weeks
Experimental: (§1) Design of test groups: db/m group, db/db mice are divided into the following six groups: blank control group (no glucose), negative control group (model group), positive control group (350 mg/kg metformin), H2 low dose group (40 mg/kg), H2 medium dose group (80 mg/kg), H2 high dose group (160 mg/kg); • Number of animals: 12 mice for each group; • Sex: male;
(§2) Administration frequency: once a day, for 12 weeks; db/m group, blank control group and negative control group: receiving distilled water; positive control group: positive drug metformin; other administration groups: receiving different dose of test drug H2, respectively; the day of administration was defined as the first day of the test.
After completion of the test, the kidney was dissected and collected. The histopathological results of the kidney indicated the grades by referring to the principles and standards in literature
(Fermented Milk has Anti-diabetic Effects: Anti-diabetic Effect of Fermented Milk Containing Conjugated Linoleic Acid on Type II Diabetes Mellitus, Korean J. Food Sci. An., Vol. 36, No. 2 (2016)).

[2] = tested on: spontaneous type II diabetic db/db mice; test: Hypoglycemic effect test: tail vein blood glucose during 12 weeks of dosing
Experimental: as §1, §2
Sampling frequency: blood glucose was detected once every 2 weeks after grouping, and then after glucose was administrated, the blood glucose was further measured. Sampling site: tail vein; sampling volume: about 1 drop; blood glucose detection: real-time detection by blood glucose meter.

[3] = tested on: spontaneous type II diabetic db/db mice; test: Prevention and treatment of retinopathy: pathological staining of eyeball, grading of retinal ganglion cell layer degeneration; parameters: key to Left eye / Right eye / Retinal degeneration, ganglion cell layer (right eye) / Retinal degeneration, ganglion cell layer (left eye): “N” means normal tissue morphology and structure; “E” means changed tissue morphology and structure; “—” means no such pathological change; conditions: 12 weeks
Experimental: as §1, §2
During the test period, compared with the animals in normal control group, the retinal ganglion cell layer of animals in each group had different degrees of degeneration except for the test drug H2 high-dose group. According to the severity of the degeneration of the retinal ganglion cell layers, there were 0-4 grades according to the pathological grading principle in the literature
(Fermented Milk has Anti-diabetic Effects: Anti-diabetic Effect of Fermented Milk Containing Conjugated Linoleic Acid on Type II Diabetes Mellitus, Korean J. Food Sci. An., Vol. 36, No. 2 (2016)). The larger the value, the more severe the disease.

[4] = tested on: spontaneous type II diabetic db/db mice; test: Kidney function: blood urea nitrogen (UREA), blood creatinine (CREA) and renal index before and after administration; conditions: MEAN ± SEM
Experimental: as §1, §2
(1) Changes of blood urea nitrogen (UREA) and blood creatinine (CREA) as well as renal index before and after administration

[5] = metformin 350 mg/kg oral gavage once a day, individual animals
[6] = metformin 350 mg/kg oral gavage once a day, individual animals, grade
[7] = metformin 350 mg/kg oral gavage once a day, MEAN ± SEM
[8] = metformin 350 mg/kg oral gavage once a day, individual animals, grades 0-4, larger = more severe
[9] = metformin 350 mg/kg oral gavage once a day, 12 weeks

## CN(C)C(=N)N=C(N)N [metformin, Metformin]
[1]; [5]
  kidney: E
[1]; [6]
  Basophilic changes in renal tubules: — (8×) and 1
  Dilation of the renal pelvis: —
  Glomerular dilation: —
  Glomerulosclerosis: 1 and — (8×)
  Hypertrophy of renal tubular epithelial cells: —
  Monocyte infiltration: —
  Proliferation of glomerular mesangum or mesangial cells: 1 (3×) and 2 (6×)
  Protein casts: —
[1]; metformin 350 mg/kg, no statistical difference vs. negative control group
  Proliferation of glomerular mesangum or mesangial cells (in words): showed the effect trend of alleviating the proliferation of glomerular mesangum or mesangial cells
[2]; [7]
  Blood glucose concentration, Administrating for 15 days: 6.95 ± 0.57 mmol/L
  Blood glucose concentration, Administrating for 29 days: 8.30 ± 0.94 mmol/L
  Blood glucose concentration, Administrating for 43 days: 8.93 ± 1.15 mmol/L
  Blood glucose concentration, Administrating for 57 days: 8.92 ± 1.12 mmol/L
  Blood glucose concentration, Administrating for 72 days: 8.80 ± 1.11 mmol/L
  Blood glucose concentration, Administrating for one day: 13.78 ± 1.74 mmol/L
[2]; metformin 350 mg/kg, vs. negative control group, from the 15th day, P<0.001
  Hypoglycemic effect (in words): could significantly reduce the blood sugar of db/db mice
[3]; [5]
  Left eye: E (3×) and N (6×)
  Right eye: N (8×) and E
[3]; [8]
  Retinal degeneration, ganglion cell layer (left eye): 2 (2×) and — (6×) and 1
  Retinal degeneration, ganglion cell layer (right eye): — (8×) and 1
[3]; metformin 350 mg/kg, vs. negative control group
  Improvement of retinopathy (in words): hardly improved the symptoms of retinopathy
[4]; metformin 350 mg/kg group, before administration (baseline)
  Before administration CREA: 4.50 ± 1.38 µmol/L
[4]; [9]
  Change rate of CREA: 0.83 ± 0.17
  Renal index: 0.43 ± 0.03%
